Measurements as given in US12115161B2, “Prophylactic and/or therapeutic agent for inflammatory diseases which contains pyrrolopyrimidine compound as active ingredient” (KEIO UNIVERSITY, priority 2018, dated 2024).

Tests used:
[1] = test system: peripheral blood mononuclear cells (PBMC); experiment: IgG production by B cell-stimulation culture using peripheral blood mononuclear cells (Example 5); format: cell-based, human
Procedure: Peripheral blood mononuclear cells were isolated from normal healthy human peripheral blood by density gradient centrifugation using Ficoll. In the presence of 5 μg/mL anti-human IgM antibody, 1 μg/mL anti-human CD40 antibody, 30 ng/mL recombinant human IL-21, 30 ng/mL recombinant human BAFF, and Compound A (0.4 μM, 2 μM, and 10 μM), 2×10^5 peripheral blood mononuclear cells were cultured using a 10% FBS/RPMI 1640 culture medium in a 5% CO2 environment at 37° C. for seven days. The cells were cultured in 96-well round-bottom culture plates in a scale of 200 μL per well. Seven days later, the supernatant was removed and the culture supernatant was collected to determine the IgG content in the culture supernatant by ELISA. As controls, experiments in the case of not adding Compound A and the case of adding neither Compound A nor BAFF were also performed. Moreover, for comparison with the effects of Compound A, experiments using BIK-13 instead of Compound A were also performed.

[2] = test system: MRL/lpr mice; experiment: Anti-dsDNA antibody titer in blood of MRL/lpr mice (Example 6); format: in vivo
Description: MRL/lpr mice (purchased from Charles River Laboratories Japan, Inc.) were used as disease model (may also be referred to as collagen disease model or systemic lupus erythematosus (SLE) model) mice developing inflammatory diseases at a high rate and developing multiple autoimmune phenomena. Approximately 80% or more of the MRL/lpr mice develop systemic vasculitis around four to five months old. In addition, it is also known that the same individual spontaneously develops, not only vasculitis, but also glomerulonephritis, arthritis, sialadenitis, and the like (J. Jpn. Coll. Angiol., 2009, 49 11-16.).
Experiments were performed as follows: • Group 1: administered a physiological saline solution only (saline); • Group 2: administered 0.04 mg/kg of Compound A; • Group 3: administered 0.2 mg/kg of Compound A; • Group 4: administered 1 mg/kg of Compound A. […]
The blood was collected over time (0 w, 4 w, 8 w, 12 w, and 16 w) measure the anti-dsDNA antibody titers in the blood. The anti-dsDNA antibody is a kind of antinuclear antibody and is known to be frequently and specifically detected in the serum of SLE patients.
The anti-dsDNA antibody titers in the blood were measured with “LBIS™ anti-dsDNA mice ELISA KIT” (AKRDO-061, produced by Fujifilm Corp.). […]

[3] = test system: human peripheral blood monocytes; experiment: IL-6 production inhibitory effect of BAFF from human peripheral blood monocytes (Example 3); format: cell-based
Procedure: Monocytes were isolated from normal healthy human peripheral blood using CD14-microbeads. In the presence of 2 μg/mL recombinant human BAFF (same as Example 2) and Compound A (2 μM and 10 μM) (entire culture scale of 24-well culture plates at 2 mL/well), 5×10^5 of the isolated monocytes were cultured using a 10% FBS/RPMI 1640 culture medium in a 5% CO2 environment at 37° C. for four days. Four days later, the supernatant was removed to determine the IL-6 content in the culture supernatant by IL-6 specific ELISA. For comparison, experiments using BIK-13 instead of Compound A were also performed.

Cc1c(C)n(Cc2ccccc2)c2ncnc(OC3CCN(CC(=O)NCC4CC4)CC3)c12 [Compound A, 2-[4-{(7-benzyl-5,6-dimethyl-7H-pyrrolo[2,3-d]pyrimidin-4-yl)oxy}piperidin-1-yl]-N(cyclopropylmethyl)acetamide]
IgG antibody production inhibitory effect compared with the control ([1]; 0.4 μM, 2 μM and 10 μM, anti-IgM, anti-CD40, IL-21 and BAFF stimuli, 7 days): significant (respectively, p<0.05, p<0.01, and p<0.001) IgG antibody production inhibitory effects
cancellation of the IgG antibody production enhancement by BAFF ([1]; 10 μM, compared with adding none): almost completely cancelled
inhibitory effect on IgG antibody production, times stronger than BIK-13 ([1]; PBMC system of Example 5): approximately 25 times
anti-dsDNA antibody titer inhibitory effect compared with saline ([2]; 0.2 mg/kg and 1 mg/kg, 16th week): significant (respectively, p<0.05) anti-dsDNA antibody titer inhibitory effects
anti-dsDNA antibody titers in the blood compared with saline ([2]; 0.04, 0.2 and 1 mg/kg, intravenous injection five times a week, 8 w or later): tendency of decrease
IL-6 production inhibitory effect compared with the control ([3]; 2 μM and 10 μM with 2 μg/mL human BAFF, 4 days): significant (p<0.001) IL-6 production inhibitory effects
relative amount of IL-6 production ([3]; 2 μM, control = 100%): 66.4±0.283%
IL-6 production inhibitory effect, times stronger than BIK-13 ([3]; monocytes of normal healthy individuals): at least 5 times
